36 compounds from ChEMBL document CHEMBL4483862, “Open-source discovery of chemical leads for next-generation chemoprotective antimalarials” (2018) can be followed below.

For this test, the system named is Plasmodium berghei. Description: Luciferase/luciferin-expressing antifolate-resistant parasites were used to infect a culture of HepG2 cells that were pre-incubated with compounds. Infected hepatocytes emit light due to the luciferase reaction. Assay results are presented as the percent inhibition of light emission compared to control. […]. The class given is functional. The note with it: sporozoite; for IC90: read-out: LUCIFERASE INFECTION ASSAY - IC90.

Consider `COc1ccc(CNc2ncnc3ccccc23)cc1`, for which the IC90 is greater than 10 µM. For the same compound, the IC50 (PBLUC_HILL_SLOPE 1.65, PBLUC_R_SQUARED 0.126, read-out: LUCIFERASE INFECTION ASSAY - IC50) came out at 3.67 µM.
Take `CCOC(=O)c1c(C)nn(-c2ccc(NC(=O)c3cccs3)cc2)c1C`: the IC90 was found to be 5.59 µM. Under “PBLUC_HILL_SLOPE 1.61, PBLUC_R_SQUARED 0.613, read-out: LUCIFERASE INFECTION ASSAY - IC50”, the IC50 was 1.43 µM.
`Cc1ccc2nc(-c3ccc(NC(=O)CN4C(=O)NC(C)(c5ccc(OC(F)F)cc5)C4=O)cc3)sc2c1` (configuration not stated): the IC90 is greater than 10 µM. Also, the IC50 (PBLUC_HILL_SLOPE 1.6, PBLUC_R_SQUARED 0.077, read-out: LUCIFERASE INFECTION ASSAY - IC50) was greater than 10 µM.
For `CS(=O)(=O)c1ccc2nc(NC(=O)c3cc(-c4ccccc4)nn3-c3ccccc3)sc2c1`, the IC90 was greater than 10 µM. The IC50 (PBLUC_HILL_SLOPE 1.63, PBLUC_R_SQUARED 0.444, read-out: LUCIFERASE INFECTION ASSAY - IC50) was 4.67 µM.
On to `Cc1ccc(S(=O)(=O)Nc2ccc(Nc3nccn4c(-c5ccccc5Oc5ccccc5)cnc34)cc2)cc1`, for which the IC90 worked out at 5.41 µM. In addition, where the note is “PBLUC_HILL_SLOPE 1.64, PBLUC_R_SQUARED 0.733, read-out: LUCIFERASE INFECTION ASSAY - IC50”, the IC50 amounted to 1.42 µM.
As for `Oc1cc(C(F)(F)F)nc2ccc(F)cc12`, the IC90 was greater than 14.3 µM. Moreover, under “PBLUC_HILL_SLOPE 1.66, PBLUC_R_SQUARED 0.446, read-out: LUCIFERASE INFECTION ASSAY - IC50”, the IC50 was 6.54 µM.
For the compound `O=C(Nc1ccccc1Cc1ccccc1)c1cc2c(nc3sccn32)s1`, the IC90 worked out at 4.88 µM. Besides, the IC50 (PBLUC_HILL_SLOPE 1.68, PBLUC_R_SQUARED 0.818, read-out: LUCIFERASE INFECTION ASSAY - IC50) was 1.32 µM.
For `O=S(=O)(c1cc(C(F)(F)F)cc(C(F)(F)F)c1)N1CCc2c([nH]c3ccccc23)C1C(F)(F)F` (configuration not stated), the IC90 is greater than 6.39 µM. Further, the IC50 (PBLUC_HILL_SLOPE 1.65, PBLUC_R_SQUARED 0.099, read-out: LUCIFERASE INFECTION ASSAY - IC50) stood at 5.02 µM.
`Cc1ccc(-n2c(C)cc(C(=O)COC(=O)c3cccn3C)c2C)cc1`: the IC90 was greater than 10 µM. Besides, the IC50 (PBLUC_HILL_SLOPE 1.64, PBLUC_R_SQUARED 0.0485, read-out: LUCIFERASE INFECTION ASSAY - IC50) is 5.54 µM.
For the compound `CC(=O)NC12CC3CC(C1)CC(C(=O)Nc1ccc4c(c1)-c1ccccc1C4)(C3)C2`, the IC90 was 5.37 µM. In addition, the IC50 (PBLUC_HILL_SLOPE 1.58, PBLUC_R_SQUARED 0.82, read-out: LUCIFERASE INFECTION ASSAY - IC50) stood at 1.34 µM.
For `N#Cc1ccc(-c2cc(C3(CNc4cccc(OC(F)(F)F)c4)CC3)ccn2)cc1`, the IC90 is greater than 10 µM. In addition, the IC50 (PBLUC_HILL_SLOPE 1.65, PBLUC_R_SQUARED 0.178, read-out: LUCIFERASE INFECTION ASSAY - IC50) was greater than 10 µM.
As for `CC(=O)Nc1ccc(OCc2ccccc2C(F)(F)F)cc1`, the IC90 was 5.57 µM. For the same compound, where the note is “PBLUC_HILL_SLOPE 1.68, PBLUC_R_SQUARED 0.57, read-out: LUCIFERASE INFECTION ASSAY - IC50”, the IC50 was 1.51 µM.
For `O=C(CN(Cc1ccco1)S(=O)(=O)c1ccccc1F)Nc1ccc(SC(F)F)cc1`, the IC90 was greater than 10 µM. Besides, the IC50 (PBLUC_HILL_SLOPE 1.6, PBLUC_R_SQUARED 0.718, read-out: LUCIFERASE INFECTION ASSAY - IC50) is 3.47 µM.
For the compound `Cc1c(S(=O)(=O)c2ccc(Cl)cc2)csc1C(=O)NCc1ccco1`, the IC90 was greater than 8.34 µM. Further, the IC50 (PBLUC_HILL_SLOPE 1.58, PBLUC_R_SQUARED 0.729, read-out: LUCIFERASE INFECTION ASSAY - IC50) is 2.88 µM.
With `N=C(N)N/N=C\c1cccc2ccccc12`, the IC90 was greater than 15.5 µM. For the same compound, the IC50 (PBLUC_HILL_SLOPE 1.61, PBLUC_R_SQUARED 0.436, read-out: LUCIFERASE INFECTION ASSAY - IC50) was determined as 6.92 µM.
Turning to `CC(C)N1CCC(NC(=O)c2ccc(COc3ccc4ccccc4c3)o2)CC1`, the IC90 turned out to be 9.06 µM. Besides, the IC50 (PBLUC_HILL_SLOPE 1.64, PBLUC_R_SQUARED 0.625, read-out: LUCIFERASE INFECTION ASSAY - IC50) was determined as 2.37 µM.
With `COC(=O)c1c(-c2ccccc2Cl)noc1/C=C/c1c[nH]c(=O)c2c(-c3ccccc3Cl)noc12`, the IC90 was greater than 6.49 µM. In addition, the IC50 (PBLUC_HILL_SLOPE 1.63, PBLUC_R_SQUARED 0.42, read-out: LUCIFERASE INFECTION ASSAY - IC50) amounted to 3.61 µM.
On to `COc1ccc(C(=O)Nc2ccc3nc(-c4cc(OC)c(OC)c(OC)c4)nn3c2)cc1OC`, for which the IC90 worked out at 4.55 µM. Besides, the IC50 (PBLUC_HILL_SLOPE 1.61, PBLUC_R_SQUARED 0.589, read-out: LUCIFERASE INFECTION ASSAY - IC50) was 1.17 µM.
With `Clc1ccc(-c2csc3ncnc(Sc4nnc(N5CCOCC5)n4C4CC4)c23)cc1`, the IC90 is greater than 10 µM. The IC50 (PBLUC_HILL_SLOPE 1.69, PBLUC_R_SQUARED 0.173, read-out: LUCIFERASE INFECTION ASSAY - IC50) was 7.1 µM.
Regarding `Cc1ccc(C)c(NC(=S)[C-](C(=O)c2ccc3c(c2)OCCO3)[n+]2ccccc2)c1`, the IC90 is greater than 10 µM. The IC50 (PBLUC_HILL_SLOPE 1.61, PBLUC_R_SQUARED 0.831, read-out: LUCIFERASE INFECTION ASSAY - IC50) was determined as 5.38 µM.
As for `O=C(Nc1ccccc1O)c1ccc(Cn2ccnc2)cc1`, the IC90 worked out at 6.19 µM. For the same compound, for the setting “PBLUC_HILL_SLOPE 1.6, PBLUC_R_SQUARED 0.598, read-out: LUCIFERASE INFECTION ASSAY - IC50”, the IC50 was 1.57 µM.
`CN1/C(=C\C(=O)COC(=O)C2Cc3ccccc3CN2C(=O)c2ccccc2)C(C)(C)c2ccccc21` (configuration not stated): the IC90 is greater than 10 µM. The IC50 (PBLUC_HILL_SLOPE 1.63, PBLUC_R_SQUARED 0.576, read-out: LUCIFERASE INFECTION ASSAY - IC50) turned out to be 3.35 µM.
Turning to `O=C(Nc1ccccc1)ON=C1CC2CCCC(C1)N2Cc1ccccc1`, the IC90 is greater than 9.08 µM. Further, the IC50 (PBLUC_HILL_SLOPE 1.59, PBLUC_R_SQUARED 0.239, read-out: LUCIFERASE INFECTION ASSAY - IC50) is greater than 9.08 µM.
Regarding `CCOC(=O)C1=C(C)NC(C)=C(C(=O)OCC)C1c1ccc(Cl)cc1Cl`, the IC90 was greater than 8.29 µM. Moreover, the IC50 (PBLUC_HILL_SLOPE 1.65, PBLUC_R_SQUARED 0.211, read-out: LUCIFERASE INFECTION ASSAY - IC50) was greater than 8.29 µM.
With `CN(c1ccccc1)S(=O)(=O)c1ccc(C(=O)N2CCN(Cc3ccc(Cl)s3)CC2)cc1`, the IC90 was greater than 10 µM. Further, for the setting “PBLUC_HILL_SLOPE 1.66, PBLUC_R_SQUARED 0.494, read-out: LUCIFERASE INFECTION ASSAY - IC50”, the IC50 turned out to be 8.02 µM.
Turning to `Cc1nc(C(F)(F)F)nc(NCc2ccc(Cl)cc2)c1C`, the IC90 was greater than 10.5 µM. Moreover, the IC50 (PBLUC_HILL_SLOPE 1.61, PBLUC_R_SQUARED 0.626, read-out: LUCIFERASE INFECTION ASSAY - IC50) was 3.42 µM.
For `O=C(NC1CC1)c1ccc(CN(C2CC2)S(=O)(=O)/C=C/c2ccccc2)cc1`, the IC90 was 4.03 µM. The IC50 (PBLUC_HILL_SLOPE 1.61, PBLUC_R_SQUARED 0.829, read-out: LUCIFERASE INFECTION ASSAY - IC50) was found to be 1.03 µM.
Regarding `CCOC(=O)c1c(C)[nH]c(C(=O)Nc2ccnn2Cc2ccc(Cl)cc2Cl)c1C`, the IC90 was greater than 10 µM. In addition, the IC50 (PBLUC_HILL_SLOPE 1.6, PBLUC_R_SQUARED 0.586, read-out: LUCIFERASE INFECTION ASSAY - IC50) is 3.97 µM.
On to `CCn1c(SCCOc2ccccc2Cl)nnc1-c1cc(-c2ccccc2)nc2ccccc12`, for which the IC90 was greater than 10 µM. Moreover, the IC50 (PBLUC_HILL_SLOPE 1.65, PBLUC_R_SQUARED 0.274, read-out: LUCIFERASE INFECTION ASSAY - IC50) is greater than 10 µM.
On to `CC(NCc1ccc(-c2ccccc2)s1)c1ccc(-n2ccnc2)cc1` (configuration not stated), for which the IC90 is greater than 10 µM. The IC50 (PBLUC_HILL_SLOPE 1.59, PBLUC_R_SQUARED 0.529, read-out: LUCIFERASE INFECTION ASSAY - IC50) was 7.08 µM.
As for `CNc1nc2cnc(-c3ccc(F)c(Cl)c3)cc2n1Cc1ccc(OC)c(OC)c1`, the IC90 was determined as 3.93 µM. For the same compound, under “PBLUC_HILL_SLOPE 1.59, PBLUC_R_SQUARED 0.826, read-out: LUCIFERASE INFECTION ASSAY - IC50”, the IC50 amounted to 0.992 µM.
As for `O=C(NCc1ccc(Cn2ccnc2)cc1)c1csc(-c2cccs2)n1`, the IC90 was greater than 10 µM. Further, the IC50 (PBLUC_HILL_SLOPE 1.64, PBLUC_R_SQUARED 0.565, read-out: LUCIFERASE INFECTION ASSAY - IC50) was determined as 6.98 µM.
Regarding `COc1ccc(N2C(=O)c3ccccc3C(C=NNC(=O)c3sc4ccccc4c3Cl)C2=O)cc1OC` (configuration not stated), the IC90 is greater than 10 µM. For the same compound, for the setting “PBLUC_HILL_SLOPE 1.6, PBLUC_R_SQUARED 0.564, read-out: LUCIFERASE INFECTION ASSAY - IC50”, the IC50 turned out to be 3.85 µM.
Turning to `CCCC/C=C/c1cnc2ccc(NC(CC)CO)nn12` (configuration not stated), the IC90 is greater than 11.4 µM. In addition, the IC50 (PBLUC_HILL_SLOPE 1.69, PBLUC_R_SQUARED 0.254, read-out: LUCIFERASE INFECTION ASSAY - IC50) was 7.08 µM.
For the compound `CC(C)n1ncc2cc(NC(=O)c3cccc(S(=O)(=O)NCc4ccccc4)c3)cnc21`, the IC90 is greater than 10 µM. Besides, the IC50 (PBLUC_HILL_SLOPE 1.68, PBLUC_R_SQUARED 0.408, read-out: LUCIFERASE INFECTION ASSAY - IC50) is 6.12 µM.
Consider `O=C(Nc1ccc2c(c1)OCO2)c1cnc(N2CCN(Cc3ccc(Cl)cc3)C2=O)o1`, for which the IC90 is greater than 10 µM. Moreover, the IC50 (PBLUC_HILL_SLOPE 1.65, PBLUC_R_SQUARED 0.722, read-out: LUCIFERASE INFECTION ASSAY - IC50) is 3.79 µM.

The term IC50 denotes the point on the concentration scale where inhibition reaches its midpoint. What is called IC90 is the point of the concentration-response curve where the effect stands at 90%.
